Laboratory results: patent US20190350955A1, “METHODS AND PHARMACEUTICAL COMPOSITIONS FOR THE TREATMENT OF CARDIOMYOPATHIES” (INSERM (Institut National de la Sante et de la Recherche …, priority 2016, published 2019)

Assays:
[1] = tested on: neonatal rat cardiomyocytes (NRC); assay: Western blot of AMPK phosphorylation and Nmrk2 protein in NRC; type: cell-based; settings: AICAR 500 μM, 48 h
Description: Proteins were homogenized in a lysis buffer (Tris-HCl pH 7.5 50 mM, NP40 Igepal 1%, NaCl 150 mM, EDTA 1 mM, DTT 1 mM, Glycerol 10%) in the presence of proteases.
phosphatases and deacetylases inhibitors (PMSF 0.5 mM, NaF 50 mM, PPiNa 5 mM, Roche protease cocktail inhibitor 1/100, Santa Cruz deacetylase cocktail inhibitor 1/100). Equal amounts of proteins (10 to 20 μg) were separated on SDS-PAGE and transferred to nitrocellulose membranes. Proteins were detected by overnight incubation at 4° C. with primary antibodies, followed by IRDye 700 or IRDye800 fluorescent antibodies (Li-Cor Biosciences. 1/2500) and scanned on an Odyssey CLx Infrared Imaging System (Li-Cor Biosciences).
(§1) Isolation and Treatments of Neonatal Rat Cardiomyocytes (NRC) NRC were isolated as described previously (Diguet et al., 2011). 1-day-old rat pups were killed by decapitation and the cardiac ventricles were harvested and minced into 1 to 2-mm wide cubes with scissors. After washing with Tyrode solution, heart fragments were subjected up to 10 rounds of digestion with 0.05 mg/ml of Liberase Blendzyme 4 (Roche Applied Science) in 10 ml oxygenated Tyrode solution under agitation at 37° C. for 10 minutes. The supernatant of the first digestion was discarded and the following digestions were centrifuged and the cell pellet dissociated in 2 ml of DMEM, 10% FCS. […]

[2] = tested on: neonatal rat cardiomyocytes (NRC); assay: NAD+ and NADH levels in NRC; type: cell-based; settings: AICAR treatment
Description: For cell cultures, the wells were washed twice with PBS and scraped on ice in HClO4 0.5M (100 μl/well in 12-well plate). Acid extracts were neutralized with a half volume of KOH 1M/K2HPO4-KH2PO4 0.33 M pH 7.5. Heat denaturation was selective for NAD^+ in this condition. Measures were made on a volume of […], of non heated extracts (NADt) or 25 μl of heated extracts (NADH) (diluted 1/10 to 1/20).
For both types of extracts (buffered ethanol or HClO4) we added 100 μL of reaction buffer (600 mM ethanol, 0.5 mM 3-(4.5-dimethylthiazol-2-yl)-2.5-diphenyltetrazolium bromide (MTT), 2 mM phenazine ethosulfate (PES), 120 mM Bicine (pH 7.8), yeast alcohol dehydrogenase (SIGMA A3263>300 u/mg.) 0.05 mg/ml. Kinetics of the reaction (OD at 550 nm, every 30 seconds for 40 minutes) was followed on a TECAN Infinite F500 microplate reader. NAD was quantified in duplicates for each sample by comparison to a range of standard NAD^+ concentration using linear regression curve equation method between NAD^+ standard concentrations and the slope of the reaction in OD units/sec. NAD^+/NADH was obtained by the formula ([NADt]−[NADH])/[NADH]. Cell extracts were quantified for protein concentration determined by Bradford assay.
Isolation and Treatments of Neonatal Rat Cardiomyocytes (NRC) NRC were isolated as described previously (Diguet et al., 2011). […]

Nmrk2 = assay: RT qPCR of Nmrk2 mRNA in NRC; type: cell-based, rat; settings: AICAR treatment
Description: cDNAs were reverse transcribed from RNA (1.5 μg) extracted in TRIzol (Thermofisher) from cell cultures and tissues using the Superscript II Reverse Transcriptase (Life Technologies). Quantitative PCR was carried out on a Light Cycler 480 (Roche Diagnostics) using Fast Start SYBR Green Master (Roche Diagnostics). Quantification of gene expression was calculated as R=2^ΔCt(Ref Cp−target Cp), with Hprt used as a as reference. Primers were designed using the NCBI Primer-BLAST software. Primer sequences are available on request.
as §1, with “FCS. The different fractions were pooled and centrifuged on a discontinuous Percoll gradient (bottom 58.5%. top 40.5%. 30 min. 3000 rpm) to enrich in cardiomyocytes at the interface between the 2 Percoll solutions.” for “FCS.”

Nmrk2 promoter = Nmrk2 promoter luciferase reporter assay in NRC; type: cell-based, rat; settings: NRC, AICAR 500 μM
Description: Isolation and Treatments of Neonatal Rat Cardiomyocytes (NRC) NRC were isolated as described previously (Diguet et al., 2011). 1-day-old rat pups were killed by decapitation and the cardiac ventricles were harvested and minced into 1 to 2-mm wide cubes with scissors. After washing with Tyrode solution, heart fragments were subjected up to 10 rounds of digestion with 0.05 mg/ml of Liberase Blendzyme 4 (Roche Applied Science) in 10 ml oxygenated Tyrode solution under agitation at 37° C. for 10 minutes. The supernatant of the first digestion was discarded and the following digestions were centrifuged and the cell pellet dissociated in 2 ml of DMEM, 10% FCS. The different fractions were pooled and centrifuged on a discontinuous Percoll gradient (bottom 58.5%. top 40.5%. 30 min. 3000 rpm) to enrich in cardiomyocytes at the interface between the 2 Percoll solutions. Non cardiac cells containing mainly fibroblasts were at the top of the tubes. Neonatal cardiomyocytes were seeded at a density 5×10^5 cells/well in 6-well plates coated with 10 μg/ml of laminin (BD Biosciences) in DMEM without pyruvate, with glucose 4.5 g/l, 10% horse serum, 5% FCS and cultured at 37° C. in 1% CO, atmosphere. To assay the impact on NAD^+ and Nmrk2 expression, Azaserin and FK866 drugs were added in the culture medium at day 5 and renewed everyday when the treatment was prolonged over several days. The same was done for NAD^+, NR and AICAR (5-aminoimidazole-4-carboxamide-1-β-D-ribofuranoside). AICAR was administrated for 24 h only. Doses are indicated in the legends. For treatment of transfected cells (see next section), AICAR, FK866 and PPAR agonists and antagonist were administrated 1 day after transfection. PPAR agonists: GW7647 for PPARα, GW501516 for PPARβ/δ and GW1929 for PPARγ; PPAR antagonists: GW6471 PPARα, GSK3787 for PPARβ/δ and GW9662 for PPARγ were ordered from SIGMA ALDRICH CHIMIE, Saint Quentin Fallavier, France.
The transcription initiation site of mouse Nmrk2 promoter was determined by 5′RACE and was conform to the reported site in the Genebank (NM_027120.2). The promoter of the mouse Nmrk2 gene was cloned from C57B16/N genomic DNA by PCR, and inserted into a pGL4.10[luc2] luciferase reporter plasmid (Promega prod no E6651). Subsequent deletions were performed by enzymatic digestion or primer mediated subcloning of the original fragment. 2.5×10^5 cardiomyocytes in 12-well plates were co-transfected at day 2 of culture with 1 μg of Nmrk2 pGL4.10[luc2] constructs and 100 ng of pGL4.73[hRluc/SV40] Vector (Promega prod no E6911) as an internal control of transfection efficiency using Lipofectamine 2000 (Lifetechnology) as indicated by the supplier. In the case of AICAR treatment, Luciferase activity was analyzed 48 h later with the Dual-Luciferase Assay System (Promega).
The pcDNA3 vectors harboring dominant negative AMPK, PPARα, PPARβ and PPARγ as well as RXR genes were kindly provided by Pr. Michel Raymondjean (El Hadri et al. (2015). AMPK Signaling Involvement for the Repression of the IL-1beta-Induced Group IIA Secretory Phospholipase A2 Expression in VSMCs. Journal 10, e0132498; Ravaux et al. (2007). Inhibition of interleukin-1 beta-induced group 11A secretory phospholipase A2 expression by peroxisome proliferator-activated receptors (PPARs) in rat vascular smooth muscle cells: cooperation between PPARbeta and the proto-oncogene BCL-6. Journal 27, 8374-8387; Woods et al. (2000). Characterization of the role of AMP-activated protein kinase in the regulation of glucose-activated gene expression using constitutively active and dominant negative forms of the kinase. Journal 20, 6704-6711). These vectors were cotransfected at a dose of 100 ng/well in 24-well plates with 500 ng of Nmrk2 luciferase constructs.

NC(=O)c1ncn([C@@H]2O[C@H](COP(=O)(O)O)[C@@H](O)[C@H]2O)c1N [AICAR, 5-Aminoimidazole-4-carboxamide ribonucleotide]
AMPK phosphorylation [1]: stimulated
Nmrk2 expression at the protein level [1]: induced
NAD+ or NADH levels [2]: did not modulate
Nmrk2 expression (mRNA) (Nmrk2): robustly induced
full-length p3009-Luc Nmrk2 reporter response (Nmrk2 promoter): highly responsive
p581-Luc Nmrk2 reporter response (Nmrk2 promoter): modestly responsive
